Reference: patent US20210347775A1, “Deuterated Imidazo[4,5-c]quinolin-2-one Compounds and Their Use in Treating Cancer” (AstraZeneca AB, priority 2017, published 2021)

Experiments:
[1] = biological target: T1, ATR (Homo sapiens, UniProt Q13535); test: Assay b): ATR cellular potency (pChk1 Ser345 in HT29 cells after 4NQO); format: cell-based; conditions: Table 3 comparative data; HT29 cells, pChk1 Ser345 after 4NQO; may be geometric mean of several tests; read-out: Assay b) ATR Cell IC50
T1 construct: endogenous in cells; host or cells: HT29 cells (ECACC #85061109)
Protocol: (§1) The following assays were used to measure the effects of the compounds of the present invention: a) ATM cellular potency assay; b) PI3K cellular potency assay; c) mTOR cellular potency assay; d) ATR cellular potency assay. During the description of the assays, generally: • i. […] IC50 values were calculated using a smart fitting model in Genedata. […]
Phospho-Chk1 Ser 345 antibody (Cell Signalling Technology #2348) was diluted 150 fold in PBS containing 0.05% polysorbate/Tween and 15 μl was added to each well and incubated over night at r.t. […] After 2 h incubation at r.t., the plates were washed three times with 50 μl/well PBS, using a Biotek EL405 plate washer, and plates were then sealed with black plate seals until read. Plates were read using an ArrayScan VTI instrument, using an XF53 filter with 10× objective. […]

[2] = biological target: T2, ATM (Homo sapiens, UniProt Q13315); test: Assay a): ATM cellular potency (pATM Ser1981 in irradiated HT29 cells); format: cell-based; conditions: Table 2; HT29 cells, pATM Ser1981 after X-ray irradiation; may be geometric mean of several tests; read-out: Assay a) ATM Cell IC50
T2 construct: endogenous in cells; host or cells: HT29 cells (ECACC #85061109)
Protocol: as §1
The rationale of the pATM assay is to identify inhibitors of ATM in cells. […] The fluorescence is read on the arrayscan imaging platform. […]
Phospho-ATM Ser1981 antibody (Millipore #MAB3806) was diluted 10000 fold in PBS containing 0.05% polysorbate/Tween and 3% BSA and 20 μl was added to each well and incubated over night at r.t. […] After 1 h incubation at r.t., the plates were washed three times with 50 μl/well PBS, using a Biotek EL405 plate washer, and plates were sealed and kept in PBS at 4° C. until read. Plates were read using an ArrayScan VTI instrument, using an XF53 filter with 10× objective. […]

T2 sequence (Q13315 whole entry): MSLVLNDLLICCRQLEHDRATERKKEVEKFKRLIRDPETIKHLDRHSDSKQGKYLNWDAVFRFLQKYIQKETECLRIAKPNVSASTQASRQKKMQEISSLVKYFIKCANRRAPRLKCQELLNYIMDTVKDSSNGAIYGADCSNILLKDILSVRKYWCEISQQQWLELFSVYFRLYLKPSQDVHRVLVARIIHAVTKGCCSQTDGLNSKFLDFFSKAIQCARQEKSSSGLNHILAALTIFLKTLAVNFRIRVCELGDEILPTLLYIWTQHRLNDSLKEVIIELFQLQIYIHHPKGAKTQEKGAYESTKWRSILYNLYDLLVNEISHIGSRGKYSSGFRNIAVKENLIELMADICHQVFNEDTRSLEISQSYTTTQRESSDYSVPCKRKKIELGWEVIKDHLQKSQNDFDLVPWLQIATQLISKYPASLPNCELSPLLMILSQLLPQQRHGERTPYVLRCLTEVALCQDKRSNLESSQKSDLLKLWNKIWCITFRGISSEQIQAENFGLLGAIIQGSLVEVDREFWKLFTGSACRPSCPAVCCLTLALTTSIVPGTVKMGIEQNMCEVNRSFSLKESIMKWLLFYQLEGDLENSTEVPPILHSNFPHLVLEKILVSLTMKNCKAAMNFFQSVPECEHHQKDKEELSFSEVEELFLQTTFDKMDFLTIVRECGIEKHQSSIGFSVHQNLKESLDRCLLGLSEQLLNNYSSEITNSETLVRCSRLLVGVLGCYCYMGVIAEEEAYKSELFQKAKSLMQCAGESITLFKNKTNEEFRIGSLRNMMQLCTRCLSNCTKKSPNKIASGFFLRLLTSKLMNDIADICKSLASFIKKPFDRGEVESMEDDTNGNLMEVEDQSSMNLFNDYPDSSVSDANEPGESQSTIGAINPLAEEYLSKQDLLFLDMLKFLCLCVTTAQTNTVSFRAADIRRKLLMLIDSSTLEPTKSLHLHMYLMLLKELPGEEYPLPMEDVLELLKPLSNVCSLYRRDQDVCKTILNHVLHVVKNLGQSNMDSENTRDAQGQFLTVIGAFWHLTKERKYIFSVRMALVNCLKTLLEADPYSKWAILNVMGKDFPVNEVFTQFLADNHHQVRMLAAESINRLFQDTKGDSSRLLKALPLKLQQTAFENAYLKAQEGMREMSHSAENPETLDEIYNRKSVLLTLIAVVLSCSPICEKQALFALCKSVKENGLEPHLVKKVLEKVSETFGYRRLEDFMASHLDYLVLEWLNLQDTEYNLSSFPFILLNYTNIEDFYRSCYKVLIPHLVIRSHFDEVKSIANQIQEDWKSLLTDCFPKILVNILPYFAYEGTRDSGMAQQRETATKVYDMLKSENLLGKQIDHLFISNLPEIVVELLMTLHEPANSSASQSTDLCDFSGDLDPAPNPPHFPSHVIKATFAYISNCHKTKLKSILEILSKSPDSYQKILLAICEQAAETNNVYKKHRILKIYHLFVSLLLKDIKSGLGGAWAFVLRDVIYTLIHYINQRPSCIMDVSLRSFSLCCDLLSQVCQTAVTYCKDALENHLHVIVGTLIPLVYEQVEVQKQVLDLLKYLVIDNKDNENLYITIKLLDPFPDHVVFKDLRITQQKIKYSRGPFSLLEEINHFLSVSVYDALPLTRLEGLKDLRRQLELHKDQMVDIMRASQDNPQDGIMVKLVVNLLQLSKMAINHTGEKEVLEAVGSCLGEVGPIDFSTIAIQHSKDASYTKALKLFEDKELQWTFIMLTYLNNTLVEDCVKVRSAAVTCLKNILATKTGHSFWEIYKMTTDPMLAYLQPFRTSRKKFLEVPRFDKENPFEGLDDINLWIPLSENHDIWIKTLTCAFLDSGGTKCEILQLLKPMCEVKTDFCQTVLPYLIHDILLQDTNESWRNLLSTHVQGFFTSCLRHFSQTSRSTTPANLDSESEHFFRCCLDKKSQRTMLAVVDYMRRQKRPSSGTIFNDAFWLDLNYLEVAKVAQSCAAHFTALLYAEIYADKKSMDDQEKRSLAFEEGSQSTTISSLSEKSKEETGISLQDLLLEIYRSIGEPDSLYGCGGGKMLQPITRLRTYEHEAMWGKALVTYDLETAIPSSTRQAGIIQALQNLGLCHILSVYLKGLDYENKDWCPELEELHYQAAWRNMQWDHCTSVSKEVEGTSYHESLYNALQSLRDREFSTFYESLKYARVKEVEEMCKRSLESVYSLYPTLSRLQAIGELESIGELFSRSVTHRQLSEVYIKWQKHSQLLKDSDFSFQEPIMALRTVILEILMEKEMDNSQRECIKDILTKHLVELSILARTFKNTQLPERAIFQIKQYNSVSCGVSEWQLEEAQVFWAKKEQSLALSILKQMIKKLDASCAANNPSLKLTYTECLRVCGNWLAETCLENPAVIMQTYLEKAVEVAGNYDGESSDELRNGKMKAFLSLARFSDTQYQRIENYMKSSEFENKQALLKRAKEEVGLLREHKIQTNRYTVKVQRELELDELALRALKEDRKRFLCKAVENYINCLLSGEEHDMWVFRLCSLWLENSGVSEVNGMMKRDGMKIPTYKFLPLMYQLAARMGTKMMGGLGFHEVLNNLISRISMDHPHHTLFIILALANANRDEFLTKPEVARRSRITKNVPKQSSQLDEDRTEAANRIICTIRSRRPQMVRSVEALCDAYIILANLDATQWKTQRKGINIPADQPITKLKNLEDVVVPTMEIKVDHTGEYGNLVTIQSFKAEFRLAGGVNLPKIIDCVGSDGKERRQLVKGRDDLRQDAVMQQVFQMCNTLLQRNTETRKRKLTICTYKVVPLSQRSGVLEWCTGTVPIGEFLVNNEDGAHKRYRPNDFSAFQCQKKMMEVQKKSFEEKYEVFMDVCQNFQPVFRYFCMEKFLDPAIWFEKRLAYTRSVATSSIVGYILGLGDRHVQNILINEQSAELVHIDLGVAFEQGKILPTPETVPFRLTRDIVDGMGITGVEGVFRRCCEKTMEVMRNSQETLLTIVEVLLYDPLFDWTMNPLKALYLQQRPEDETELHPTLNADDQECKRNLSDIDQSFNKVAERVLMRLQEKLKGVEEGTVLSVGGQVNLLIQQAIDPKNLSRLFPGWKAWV

IC50 [1] [nM]	IC50 [2] [nM]	Compound
419	–	Cn1c(=O)n(C2CCOCC2)c2c3cc(-c4cnn(CCCO)c4)ccc3ncc21 [CN102399218A Compound 60]
–	2.5	[2H]c1c(F)c(-c2ccc(OCCCN3CCCCC3)nc2)cc2c1nc([2H])c1c2n(C(C)C)c(=O)n1C [Example 1, 4,6-Dideuterio-7-fluoro-1-isopropyl-3-methyl-8-[6-[3-(1-piperidyl)propoxy]-3-pyridyl]imidazo[4,5-c]quinolin-2-one]
